Measured values taken from patent US20200222410A1, “NUCLEOCYTOPLASMIC REGULATOR OF AUTOPHAGY-ASSOCIATED TRANSCRIPTION FACTORS” (BROWN UNIVERSITY, priority 2017, published 2020).
Where “and” joins values, the source holds several entries; their conditions need not be identical. Equal entries are not always repeated. Entries after “also recorded” stand apart in the source; their conditions may differ.

Key:
C. elegans [1] = experiment: Lifespan analysis of C. elegans; type: in vivo; details: for lifespan of treated animals compared to vehicle-treated controls: C. elegans wild-type; for % Difference in mean lifespan vs vehicle control / Drug treatment Mean Lifespan: N2 wild-type; for Drug treatment Mean Lifespan: 20° C.
Description: Lifespan analysis: Worms were synchronized by bleaching and eggs were grown on OP50 E. coli during development. Day 1 adults were transferred onto corresponding RNAi plates and kept at 20° C. Mantel-Cox log rank statistical analyses were calculated using Stata 13.0.

HLH-30 = experiment: HLH-30::GFP nuclear localization in nematodes (fluorescent microscopy); type: in vivo, C. elegans
Description: The nematode C. elegans is an art-recognized system to identify genetic and pharmacological modifiers of various cellular processes. As such, an unbiased genome-wide RNAi screen for genetic modifiers of the activity of HLH-30/TFEB was performed (FIG. 1B). Specifically, enhancers of HLH-30 nuclear localization were searched for by following the distribution of HLH-30 fused to GFP.
HLH-30-GFP-expressing nematodes were fed HT115 E. coli bacteria transformed with a plasmid containing the L4440 backbone and a portion of the cDNA sequence complementary to the coding sequence of the xpo-1 gene. Nuclear enrichment was measured by fluorescent microscopy after animals were treated from eggs to day 1 of adulthood. The RNAi was based on the cosmid sequence ZK742.1 of the C. elegans genome. The sequence of the RNAi used is:
Fluorescent microscopy imaging: Transgenic worms were mounted on a 2% agarose pad with 0.1% sodium azide and imaged using a Zeiss Discovery V20 fluorescent microscope.
Animals were fed OP50 E. coli with 0.2% of DMSO (vehicle control) or 0.2% DMSO with KPT-330 at 0.2 mM. Nuclear localization of the HLH-30-GFP reporter and survival was measured.

TFEB = experiment: TFEB-GFP nuclear localization in HeLa cells; type: cell-based, human; details: TFEB-GFP-expressing HeLa cells, 1 μM, 6 hours
Description: Cell culture: HeLa cells (ATCC) and HeLa cells expressing TFEB-GFP (S. Ferguson lab) were grown in 6-well plates on a coverslip for 24 hours in DMEM High Glucose (Genesee Scientific) containing 2 mM L-Glutamine, 1% Penicillin-Strep and 10% Fetal Bovine Serum (GenClone). For RNAi experiments, both HeLa cell lines were transfected with Silencer Select siRNA against XPO1 (5 nM) or TFEB (10 nM) or negative control siRNA #2 (Thermo Fisher Scientific) with RNAi Max (Thermo Fisher Scientific) and Opti-MEM (Gibco) for 48 hours. Cells were incubated for another 6 hours with DMSO 0.1%, Torin 1 […], KPT-330, KPT-276, KPT-185 or KPT-335 (1 μM) (Selleckchem). For Lysotracker analysis, cells on coverslips were previously grown with vehicle or compounds (including GSK-3β inhibitor VIII or Leptomycin b (10 nM) for 6 hours followed by a one hour incubation with 100 nM of Lysotracker Red DND-99 (Thermo Fisher Scientific) and live cells were imaged. Coverslips were mounted for imaging onto slides and imaged with a Zeiss Axiovert 200M Fluorescent Microscope. Lysotracker signal was quantified by measuring signal intensity over background of individual cells using ImageJ. For imaging TFEB-GFP signal, cells were fixed in methanol. Nuclear localization was quantified by counting cells that had higher GFP intensity in the nucleus compared to the cytoplasm measured using ImageJ.

dsodH71Y flies = experiment: Lifespan analysis of ALS model in flies (dsodH71Y); type: in vivo, D. melanogaster; details: for Drug treatment Mean Lifespan: H71Y Sod-1 (dsod) flies, 25° C.; for % Difference in mean lifespan vs vehicle control: H71Y flies
Description: l Lifespan analysis in Drosophila: Measurement of lifespan (25° C.) in dsodH71Y was performed as previously described in the art (Sahin et al., 2017, Human SOD1 ALS Mutations in a Drosophila Knock-In Model Cause Severe Phenotypes and Reveal Dosage-Sensitive Gain- and Loss-of-Function Components. Genetics 205, 707-723). The software Stata 13.0 was used to perform Mantel-Cox log rank statistical analyses.

C. elegans [2] = experiment: Heat stress survival assay (37° C.); type: in vivo; details: 100 μM
Description: (§1) Proteostasis analyses: Heat shock analyses were performed at 37° C. and scoring survival every hour. Aggregation was visualized by fluorescent microscopy using strains expressing Q35::GFP in muscle (AM140) (Morley et al., 2002, The threshold for polyglutamine-expansion protein aggregation and cellular toxicity is dynamic and influenced by aging in Caenorhabditis elegans. Proc Natl Acad Sci USA 99, 10417-10422) or Q40::YFP in intestine (GF78) (Mohri-Shiomi and Garsin, (2008) Insulin signaling and the heat shock response modulate protein homeostasis in the Caenorhabditis elegans intestine during infection. J Biol Chem 283, 194-201). Aggregate clearance was assayed with a strain (GMC101) (McColl et al., (2012). Utility of an improved model of amyloid-beta (Abeta(1)(−) (4)(2)) toxicity in Caenorhabditis elegans for drug screening for Alzheimer's disease. Mol Neurodegener 7, 57). […]) inducing expression of human Aβ42 at 25° C. Following a 5-day RNAi feeding, paralysis was assayed after 48 hours at 25° C.

mCherry::GFP::LGG-1 = experiment: Autophagy analysis with tandem reporter mCherry::GFP::LGG-1 (autophagosome and autolysosome formation); type: in vivo, C. elegans; details: 50 or 100 μM, visualized after 48 hours
Description: Autophagy analysis: Worms expressing the tandem reporter GFP-mCherry-LGG-1 (Chang et al., (2017). Spatiotemporal regulation of autophagy during Caenorhabditis elegans aging. eLife 6) were treated from L4/day 1 of adulthood and imaged using an LSM 800 Zeiss Confocal Laser Scanning Microscope as previously described (Chang et al., (2017). Spatiotemporal regulation of autophagy during Caenorhabditis elegans aging. eLife 6). To functionally assess the effect of genetically or pharmacologically inhibiting xpo-1 on the autophagic pathway, autophagic flux (i.e. fusion of autophagosome to lysosome) was measured in C. elegans. Several fluorescent reporters of autophagy proteins (including LGG-1/LC3, SQST-1/P62) have been designed to observe and quantify autophagic flux. […] These animals were used to determine the effect of silencing (RNAi) xpo-1 on autophagy using fluorescent microscopy. The accumulation of unique red punctae represents active autolysosome formation, indicative of activated autophagy.

[3] = tested on: polyQ-containing protein aggregates; experiment: polyQ aggregate formation (Q35::GFP muscle, Q40::YFP intestine); type: in vivo, C. elegans; details: day 5 animals, 100 μM
Description: as §1

## O=C(/C=C\n1cnc(-c2cc(C(F)(F)F)cc(C(F)(F)F)c2)n1)N1CC(F)(F)C1 [KPT-276]
C. elegans [1]
  lifespan of treated animals compared to vehicle-treated controls: lifespan extension
C. elegans [1]; 25 μM
  % Difference in mean lifespan vs vehicle control: 9.4%
  Drug treatment Mean Lifespan: 23.2 days
HLH-30; 25 μM
  nuclear enrichment of HLH-30: nuclear enrichment of HLH-30
TFEB
  nuclear localization of TFEB: marked increase in nuclear localization of TFEB

## COc1cc(-c2ncn(/C=C\C(=O)OC(C)C)n2)cc(C(F)(F)F)c1 [KPT-185]
TFEB
  nuclear localization of TFEB: marked increase in nuclear localization of TFEB

## O=C(/C=C\n1cnc(-c2cc(C(F)(F)F)cc(C(F)(F)F)c2)n1)NNc1ccccn1 [KPT-335, Verdinexor]
TFEB
  nuclear localization of TFEB: marked increase in nuclear localization of TFEB

## O=C(/C=C\n1cnc(-c2cc(C(F)(F)F)cc(C(F)(F)F)c2)n1)NNc1cnccn1 [KPT-330, Selinexor]
C. elegans [1]
  lifespan of treated animals compared to vehicle-treated controls: significant lifespan extension; also recorded: significant increase in the lifespan
C. elegans [1]; 25 μM
  % Difference in mean lifespan vs vehicle control: 12.4% and 13.2%
  Drug treatment Mean Lifespan: 21.7 days and 24 days
C. elegans [1]; 50 μM
  % Difference in mean lifespan vs vehicle control: 9.8% and 17%
  Drug treatment Mean Lifespan: 21.2 days and 24.8 days
C. elegans [1]; 100 μM
  % Difference in mean lifespan vs vehicle control: 14% and 21.7%
  Drug treatment Mean Lifespan: 22 days and 25.8 days
HLH-30; Day 1 adults, 25, 50 and 100 μM for 72 hours
  nuclear localization of HLH-30: displayed nuclear localization of HLH-30
HLH-30; concentrations below 25 μM
  Nuclear localization of HLH-30::GFP: not detected
HLH-30; lower concentration (data not shown)
  nuclear localization of HLH-30: also led to nuclear localization of HLH-30
HLH-30; nematodes grown on plates containing 2 mM
  nuclear localization of HLH-30 (fused to GFP): led to nuclear localization of HLH-30
dsodH71Y flies; both sexes, 100 μM
  Drug treatment Mean Lifespan: 9.8 days and 13.5 days
  % Difference in mean lifespan vs vehicle control: 24.0% and 18.4%
dsodH71Y flies; females, 100 μM
  Drug treatment Mean Lifespan: 12 days and 16.9 days
  % Difference in mean lifespan vs vehicle control: 26.3% and 27.1%
dsodH71Y flies; males, 100 μM
  Drug treatment Mean Lifespan: 6.8 days and 6 days
dsodH71Y flies; dsodH71Y flies fed 100 μM during adulthood
  overall survivorship compared to control: beneficial impact on the overall survivorship
dsodH71Y flies; dsodH71Y flies, 100 μM
  lifespan of females: extended significantly
TFEB
  nuclear localization of TFEB: marked increase in nuclear localization of TFEB
C. elegans [2]; day 1 to day 5 of adulthood
  resistance to heat: improved resistance to heat
C. elegans [2]; N2 wild-type, Day 5 of adulthood
  % Difference in heat stress survival vs vehicle control: 18.5% and 34.7%
C. elegans [2]; N2 wild-type, Day 5 of adulthood after 5 days of treatment
  Heat Stress survival (mean, hours): 6.4 h and 6.2 h
mCherry::GFP::LGG-1
  Autophagy in pharynx and hypodermal seam cells: enhanced
[3]
  formation of polyQ-containing (Q40::YFP) aggregates: reduction in the formation
